The target in the assay is T1, human capsaicin receptor (Homo sapiens, UniProt Q8NER1).
T1 construct: expressed in transfected cells
Briefly: Calcium mobilization assay, antagonist activity (Example 6). Format: cell-based. As to conditions: 50% decrease in fluorescence response of cells expressing human capsaicin receptor exposed to capsaicin. Here is the method: A cDNA encoding full length human capsaicin receptor (SEQ ID NO:1, 2 or 3 of U.S. Pat. No. 6,482,611) is subcloned in the plasmid pBK-CMV (Stratagene, La Jolla, Calif.) for recombinant expression in mammalian cells.
Human embryonic kidney (HEK293) cells are transfected with the pBK-CMV expression construct encoding the full length human capsaicin receptor using standard methods. The transfected cells are selected for two weeks in media containing G418 (400 μg/ml) to obtain a pool of stably transfected cells. Independent clones are isolated from this pool by limiting dilution to obtain clonal stable cell lines for use in subsequent experiments.
Cells transfected with expression plasmids (as described in Example 4) and thereby expressing human capsaicin receptor are seeded and grown to 70-90% confluency in FALCON black-walled, clear-bottomed 96-well plates (#3904, BECTON-DICKINSON, Franklin Lakes, N.J.). The culture medium is emptied from the 96 well plates and […] calcium sensitive dye (Molecular Probes, Eugene, Oreg.) is added to each well (dye solution: 1 mg […], 440 μL DMSO and 440 μl 20% pluronic acid in DMSO, diluted 1:250 in Krebs-Ringer HEPES (KRH) buffer (25 mM HEPES, 5 mM KCl, 0.96 mM NaH2PO4, 1 mM MgSO4, 2 mM CaCl2, 5 mM glucose, 1 mM probenecid, pH 7.4), 50 μl diluted solution per well). Plates are covered with aluminum foil and incubated at 37° C. for 1-2 hours in an environment containing 5% CO2. After the incubation, the dye is emptied from the plates, and the cells are washed once with KRH buffer, and resuspended in KRH buffer.
To measure the ability of a test compound to agonize or antagonize a calcium mobilization response in cells expressing capsaicin receptors to capsaicin or other vanilloid agonist, the EC50 of the agonist capsaicin is first determined. An additional 20 μl of KRH buffer and 1 μl DMSO is added to each well of cells, prepared as described above. 100 μl capsaicin in KRH buffer is automatically transferred by the FLIPR instrument to each well. Capsaicin-induced calcium mobilization is monitored using either FLUOROSKAN ASCENT (Labsystems; Franklin, Mass.) or FLIPR (fluorometric imaging plate reader system; Molecular Devices, Sunnyvale, Calif.) instruments. Data obtained between 30 and 60 seconds after agonist application are used to generate an 8-point concentration response curve, with final capsaicin concentrations of 1 nM to 3 μM. KALEIDAGRAPH software (Synergy Software, Reading, Pa.) is used to fit the data to the equation: y=a*(1/(1+(b/x)^c)) to determine the 50% excitatory concentration (EC50) for the response. In this equation, y is the maximum fluorescence signal, x is the concentration of the agonist or antagonist (in this case, capsaicin), a is the Emax, b corresponds to the EC50 value and c is the Hill coefficient. Determination of Agonist Activity
Test compounds are dissolved in DMSO, diluted in 20 μl KRH buffer so that the final concentration of test compounds in the assay well is between 1 μM and 5 μM, and added to cells prepared as described above. The 96 well plates containing prepared cells and test compounds are incubated in the dark, at room temperature for 0.5 to 6 hours. It is important that the incubation not continue beyond 6 hours. Just prior to determining the fluorescence response, 100 μl capsaicin in KRH buffer at twice the EC50 concentration determined as described above is automatically added by the FLIPR instrument to each well of the 96 well plate for a final sample volume of 200 μl and a final capsaicin concentration equal to the EC50. The final concentration of test compounds in the assay wells is between 1 μM and 5 μM. […] The concentration of antagonist required to provide a 50% decrease, relative to the response observed in the presence of capsaicin and without antagonist, is the IC50 for the antagonist, and is preferably below 1 micromolar, 100 nanomolar, 10 nanomolar or 1 nanomolar.
Background: Calcium assays in cells follow changes in intracellular calcium, usually with a dye or a luminescent sensor.

pIC50: −log10 of the molar value.

T1 sequence (Q8NER1 whole entry): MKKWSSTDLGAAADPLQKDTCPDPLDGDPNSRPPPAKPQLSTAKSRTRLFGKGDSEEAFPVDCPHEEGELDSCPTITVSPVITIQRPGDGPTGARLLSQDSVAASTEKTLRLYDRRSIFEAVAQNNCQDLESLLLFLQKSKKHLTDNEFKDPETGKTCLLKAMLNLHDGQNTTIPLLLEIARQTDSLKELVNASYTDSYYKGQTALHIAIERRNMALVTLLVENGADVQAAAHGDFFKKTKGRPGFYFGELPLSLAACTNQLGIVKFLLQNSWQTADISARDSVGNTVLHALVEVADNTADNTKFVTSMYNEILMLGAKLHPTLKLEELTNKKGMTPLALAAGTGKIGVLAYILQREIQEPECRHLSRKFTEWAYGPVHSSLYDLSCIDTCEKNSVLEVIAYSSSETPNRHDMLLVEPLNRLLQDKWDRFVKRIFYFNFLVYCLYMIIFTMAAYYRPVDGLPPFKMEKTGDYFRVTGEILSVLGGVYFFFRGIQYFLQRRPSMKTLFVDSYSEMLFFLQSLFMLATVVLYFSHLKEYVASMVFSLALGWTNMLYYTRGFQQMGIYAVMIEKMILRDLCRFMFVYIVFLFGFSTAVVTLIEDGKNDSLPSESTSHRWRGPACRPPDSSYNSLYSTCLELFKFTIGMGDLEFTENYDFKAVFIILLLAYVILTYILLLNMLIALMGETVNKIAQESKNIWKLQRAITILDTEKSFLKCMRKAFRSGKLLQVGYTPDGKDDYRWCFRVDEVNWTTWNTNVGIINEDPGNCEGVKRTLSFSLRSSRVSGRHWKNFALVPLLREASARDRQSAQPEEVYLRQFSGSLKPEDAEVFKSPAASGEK

As for `C[C@@H]1CN(Cc2nc(NCCc3ccccc3Cl)c3ccc(-c4ncccc4Cl)cc3n2)C[C@@H](C)O1` (stereo in doubt) [Compound 166, [2-(2-Chloro-phenyl)-ethyl]-[7-(3-chloro-pyridin-2-yl)-2-(2,6-dimethyl-morpholin-4-ylmethyl)-quinazolin-4-yl]-amine], where the note is “Table II”, the pIC50 (in general, the IC50 on a negative log10 scale, so that one unit is a factor of ten) is at least 6.00.

Turning to `FC(F)(F)c1ccccc1-c1ccc2c(NCCc3ccccc3)ncnc2c1` [Compound 1, N-(2-phenylethyl)-7-{2-(trifluoromethyl)phenyl]quinazolin-4-amine], the pIC50 (Table I) is at least 6.00.

Turning to `Fc1ccccc1CCNc1ncnc2cc(-c3ncccc3C(F)(F)F)ccc12` [Compound 6, N-[2-(2-fluorophenyl)ethyl]-7-[3-(trifluoromethyl)pyridin-2-yl]quinazolin-4-amine], for the setting “Table I”, the pIC50 was at least 6.00.

With `Fc1cccc(CCNc2ncnc3cc(-c4ncccc4C(F)(F)F)ccc23)c1` [Compound 7, N-[2-(3-fluorophenyl)ethyl]-7-[3-(trifluoromethyl)pyridin-2-yl]quinazolin-4-amine], the negative-log IC50 (pIC50) (Table I) was at least 6.00.

Turning to `Fc1ccc(CCNc2ncnc3cc(-c4ncccc4C(F)(F)F)ccc23)cc1` [Compound 8, N-[2-(4-fluorophenyl)ethyl]-7-[3-(trifluoromethyl)pyridin-2-yl]quinazolin-4-amine], the pIC50 (Table I) was at least 6.00.

With `COc1ccccc1CCNc1ncnc2cc(-c3ncccc3C(F)(F)F)ccc12` [Compound 9, N-[2-(2-methoxyphenyl)ethYl]-7-{3-(trifluoromethyl)pyridin-2-yl]quinazolin-4-amine], the negative-log IC50 (pIC50) (Table I) was at least 6.00.

For the compound `COc1cccc(CCNc2ncnc3cc(-c4ncccc4C(F)(F)F)ccc23)c1` [Compound 10, N-[2-(3-methoxyphenyl)ethyl]7-[3-(trifluoromethyl)pyridin-2-yl]quinazolin-4-amine], for the setting “Table I”, the pIC50 was at least 6.00.

As to `COc1ccc(CCNc2ncnc3cc(-c4ncccc4C(F)(F)F)ccc23)cc1` [Compound 11, N-[2-(4-methoxyphenyl)ethyl]-7-[3-(trifluoromethyl)pyridin-2-yl]quinazolin-4-amine], the negative logarithm of the IC50 (pIC50) (Table I) is at least 6.00.

Regarding `FC(F)(F)c1cccnc1-c1ccc2c(NCCc3ccccc3Cl)ncnc2c1` [Compound 12, N-[2-(2-chlorophenyl)ethyl]-7-[3-(trifluoromethyl)pyridin-2-yl]quinazolin-4-amine], the pIC50 (Table I) is at least 6.00.

As to `FC(F)(F)c1cccnc1-c1ccc2c(NCCc3cccc(Cl)c3)ncnc2c1` [Compound 13, N-[2-(3-chlorophenyl)ethyl]-7-{3-(trifluoromethyl)pyridin-2-yl]quinazolin-4-amine], the negative-log IC50 (pIC50) (Table I) is at least 6.00.

On to `FC(F)(F)c1cccnc1-c1ccc2c(NCCc3ccc(Cl)cc3)ncnc2c1` [Compound 14, N-[2-(4-chlorophenyl)ethyl]-7-[3-(trifluoromethyl)pyridin-2-yl]quinazolin-4-amine], for which the pIC50 (Table I) was at least 6.00.

In the case of `FC(F)(F)c1ccccc1CCNc1ncnc2cc(-c3ncccc3C(F)(F)F)ccc12` [Compound 15, N-{2-[2-(trifluoromethyl)phenyl]ethyl}-7-[3-(trifluoromethyl)pyridin-2-yl]quinazolin-4-amine], the pIC50 (Table I) is at least 6.00.

Turning to `FC(F)(F)c1cccc(CCNc2ncnc3cc(-c4ncccc4C(F)(F)F)ccc23)c1` [Compound 16, N-{2-[3-(trifluoromethyl)phenyl]ethyl}-7-[3-(trifluoromethyl)pyridin-2-yl]quinazolin-4-amine], the pIC50 (Table I) was at least 6.00.

As for `FC(F)(F)c1ccc(CCNc2ncnc3cc(-c4ncccc4C(F)(F)F)ccc23)cc1` [Compound 17, N-{2-[4-(trifluoromethyl)phenyl]ethyl}-7-[3-(trifluoromethyl)pyridin-2-yl]quinazolin-4-amine], the negative-log IC50 (pIC50) (Table I) was at least 6.00.

For the compound `CC(CNc1ncnc2cc(-c3ncccc3C(F)(F)F)ccc12)c1ccccc1` (stereo not drawn) [Compound 18, N-(2-phenylpropyl)-7-[3-(trifluoromethyl)pyridin-2-yl]quinazolin-4-amine], the negative-log IC50 (pIC50) (Table I) is at least 6.00.

Consider `FC(F)(F)c1cccnc1-c1ccc2c(NCCc3c(Cl)cccc3Cl)ncnc2c1` [Compound 19, N-[2-(2,6-dichlorophenyl)ethyl]-7-[3-(trifluoromethyl)pyridin-2-yl]quinazolin-4-amine], for which, where the note is “Table I”, the pIC50 is at least 6.00.

For the compound `FC(F)(F)c1cccnc1-c1ccc2c(NCCc3ccc(Cl)c(Cl)c3)ncnc2c1` [Compound 20, N-[2-(3,4-dichlorophenyl)ethyl]-7-[3-(trifluoromethyl)pyridin-2-yl]quinazolin-4-anmne], the pIC50 (Table I) is at least 6.00.

Regarding `CC(Cc1ccc(Cl)cc1)Nc1ncnc2cc(-c3ncccc3C(F)(F)F)ccc12` (stereo not drawn) [Compound 21, N-[2-(4-chlorophenyl)-1-methylethyl]-7-[3-(trifluoromethyl)pyridin-2-yl]quinazolin-4-amine], the negative-log IC50 (pIC50) (Table I) was at least 6.00.

`FC(F)(F)c1cccnc1-c1ccc2c(NCCc3ccccc3)ncnc2c1` [Compound 22, N-(2-phenylethyl)-7-[3-(trifluoromethyl)pyridin-2-yl]quinazolin-4-amine]: the pIC50 (Table I) was at least 6.00.

With `C[C@@H](CNc1ncnc2cc(-c3ncccc3C(F)(F)F)ccc12)c1ccccc1` [Compound 23, N-[(2R)~2-phenylpropyll]-7-[3-(trifluoromethyl)pyridin-2-yl]quinazolin-4-amine], under “Table I”, the pIC50 was at least 6.00.

Take `C[C@@H]1CN(Cc2nc(NCCc3ccccc3Cl)c3ccc(-c4ncccc4C(F)(F)F)cc3n2)C[C@H](C)O1` [Compound 24, N-[2-(2-chlorophenyl)ethyl]-2-{[(2R,6S)-2,6-dimethylmorpholin-4-yl]methyl}-7-[3-(trifluoromethyl)pyridin-2-yl]quinazolin-4-amine]: the negative logarithm of the IC50 (pIC50) (Table I) was at least 6.00.

Turning to `C[C@H](CNc1ncnc2cc(-c3ncccc3C(F)(F)F)ccc12)c1ccccc1` [Compound 25, N-[(2S)-2-phenylpropyl]-7-[3 (trifluoromethyl)pyridin-2-yl]quinazolin-4-amine], under “Table I”, the pIC50 was at least 6.00.

For the compound `Fc1cccc(F)c1CCNc1ncnc2cc(-c3ncccc3C(F)(F)F)ccc12` [Compound 26, N-[2-(2,6-difluorophenyl)ethYl]-7-[3-(trifluoromethyl)pyridin-2-yl]quinazolin-4-amine], for the setting “Table I”, the negative-log IC50 (pIC50) is at least 6.00.

For `Fc1ccc(CCNc2ncnc3cc(-c4ncccc4C(F)(F)F)ccc23)cc1F` [Compound 27, N-[2-(3,4-difluorophenyl)ethyl]-7-[3-(trifluoromethyl)pyridin-2-yl]quinazolin-4-amine], the pIC50 (Table I) was at least 6.00.

Regarding `Fc1cc(F)cc(CCNc2ncnc3cc(-c4ncccc4C(F)(F)F)ccc23)c1` [Compound 28, N-[2-(3,5-difluorophenyl)ethyl]-7-[3-(trifluoromethyl)pyridin-2-yl]quinazolin-4-amine], where the note is “Table I”, the pIC50 is at least 6.00.

Regarding `C[C@@H]1CN(Cc2nc(NCCc3ccccc3Cl)c3ncc(-c4ncccc4Cl)cc3n2)C[C@H](C)O1` [Compound 29, N-[2-(2-chlorophenyl)ethyl]-7-(3-chloropyridin-2-yl)-2-{[(2R,6S)-2,6-dimethylmorpholin-4-yl]methyl}pyrido[3,2-d]pyrimidin-4-amine], the negative-log IC50 (pIC50) (Table I) was at least 6.00.

On to `Cc1nc(NCCc2ccccc2Cl)c2ncc(-c3ncccc3Cl)cc2n1` [Compound 30, N-[2-(2-chlorophenyl)ethyl]-7-(3-chloropyridin-2-yl)-2-methylpyrido[3,2-d]pyrimidin-4-amine], for which, under “Table I”, the negative-log IC50 (pIC50) was at least 6.00.

These data come from US20070219203A1, “Arylalkylamino-substituted quinazoline analogues” (Neurogen Corporation, priority 2004, published 2007).
